Results from patent publication US11311538B2, “Compositions and methods for targeting cancers” (YALE UNIVERSITY, priority 2018, dated 2022).

Tested on: poly-ADP-ribose (PAR)
Experiment: Western blot of PAR levels in xenograft tumors
Type: in vivo, mouse
Conditions: 24 h post treatment (FIGS. 9A-9B)
Experimental: Western Blot analyses. Western blot analysis of protein levels was conducted by loading 30 μg of whole cell lysate onto a 4-20% polyacrylamide gel. Total protein was transferred to a nitrocellulose membrane. After blocking with 5% milk, membranes were incubated with primary antibodies. Antibodies used were: Rabbit monoclonal anti-Fumarase (D9C5,Cell Signaling Technologies) 1:1000 in 5% BSA, mouse monoclonal anti-SDHB (21A11AE7, Abcam) 1:1000 in % 5 milk, mouse monoclonal anti-Vinculin (SPM227, Abcam) 1:1000 in 5% milk, rabbit polyclonal anti-Histone 3 Lysine 36 trimethyl (9050, Abcam) 1:500 in 5% BSA, anti-Histone 3 Lysine 9 trimethyl (D4W1U, Cell Signaling Technologies) 1:1000 in 5% BSA, mouse monoclonal anti-Beta Actin (60008, Protein Tech) 1:5000 5% milk, rabbit Polyclonal anti-Histone H3 (ab1791, Abcam 1:5000 5% BSA), rabbit Polyclonal anti-PAR (4336-BPC-100, Trevigen) 1:5000 5% BSA, mouse monoclonal anti-GAPDH (60004 Protein Tech) 1:5000 5% milk, mouse monoclonal anti-BRCA2 (ab1, Millipore, 1:1000 5% Milk), mouse monoclonal anti-BRCA1 (D-9, Santa Cruz, 1:200 5% milk), mouse monoclonal anti-RAD51(14B4 Novus bio, 1:1000 5% milk). Patient sample blots were reprobed. […] Doxycycline induced knockdown was monitored by western blot as well as by RFP fluorescence from the internal and dox-inducible reporter on the TRIPZ construct. […]

Cn1ncnc1[C@H]1c2n[nH]c(=O)c3cc(F)cc(c23)N[C@@H]1c1ccc(F)cc1 [BMN-673, BMN-673 (Talazoparib)]
PAR levels by western blot, SDHB knockdown vs shCTRL tumors: reduced to the same extent
